Data set [1] is described as follows: Stability of TML-6 in TML-6 diet by LC/MS/MS. Conditions: rodent chow supplemented with TML-6, LC/MS/MS. The format is physicochemical. The protocol:
TML-6, a small molecule curcumin analog, was used in this study. A regular rodent chow (Laboratory Rodent Diet 5001) supplemented with TML-6 at 100 mg/kg rodent chow was provided by Merry Life Biomedical company, Ltd. Content, purity, and stability of TML-6 in TML-6 diet at different storage conditions were analyzed using LC/MS/MS via service provided by the Development Center for Biotechnology, Taiwan. TML-6 diet was stored at 4° C. and was added to mouse cages twice a week for ad libitum feeding regimens. Daily uptake of TML-6 in APP/PS1 mice was estimated based on average consumption of rodent chow supplemented with TML-6 at 100 mg/kg chow for 24 hr or 8 days. Briefly, three APP/PS1 mice were housed individually in metabolic cages with an apparatus for measuring food-intake. Estimated TML-6 uptake per kg body weight per day was calculated by multiplying the daily consumption of TML-6 supplemented chow by the amount of TML-6 in the chow divided by body weight.

The next data set relates to Aβ plaques. Nature of the data set: Aβ plaque deposition by Amylo-glo staining of brain sections. Conditions: cortex and hippocampus, APP/PS1 mice at 7 months, 4 months treatment, vs APP/PS1 controls. The format is in vivo. The protocol: (§1) For study of combination treatment, APP/PS1 mice were randomly assigned into four groups and were subjected to the treatments at 3 months of age (the early/prodromal stage of AD) for 4 months. Wt littermates (n=10) were also included for behavioral tests as a WT control group at 7 months. […] Body weight was recorded weekly. After 4 months of treatments, mice at age of 7 months were subjected to the following examinations.
(§2) Brain sections were fixed in 4% paraformaldehyde followed by cryoprotection with 30% sucrose in 1×PBS. Floating sections at 30 μm thickness were stored in 1×PBS with 0.05% sodium azide at 4° C. until use. Amylo-Glo RTD™ (TR-400-AG, Biosensis, Thebarton, Australia) was used for detection of amyloid-β (Aβ) plaques in the brain sections per manufacturer's instruction. The sections were mounted on the slide covered with mounting medium (Vectashield H-1000, Vector Laborotories, Burlingame, Calif., USA). Images were acquired using Leica confocal microscopy imaging system. Numbers of Aβ deposits and fluorescent area positive for AP deposits were normalized with total area of the section using MetaMorph imaging software. Quantification for sizes of AP deposits larger or smaller than 500 μm^2 were presented. […]

Data set [2] has as its system APP/PS1 mice. Nature of the data set: Nesting test. The format is in vivo. The protocol:
as §1
Before the test for nesting, mice were individually housed for 5 hr. A nestlet pressed-cotton square (Ancare) was then placed into each cage 1 hour before the start of the dark cycle. Pictures of a nestlet were taken at indicated time points, and the entire test underwent for 52 hr. Nest construction was scored by two persons unaware of treatments using a 5-point scaling system as described previously (Yeh et al. 2015). Briefly, a score of 1 indicates a >90% intact nestlet, whereas a score of 5 indicates a <10% intact nestlet and the construction of a nest with an obvious crater.

Data set [3] relates to APP/PS1 mice. Nature of the data set: Morris water maze. The format is in vivo. Conditions: training course, compared with wt. The protocol:
as §1
To evaluate spatial learning and memory deficits in APP/PS1 mice, a circular pool of 120 cm in diameter and 40 cm in height was used. The pool was filled with milk at 22-24 ° C. to approximately 20 cm in deep. A hidden platform was submerged 1 cm below the surface of milk. All experimental mice were transferred to the behavior testing room 30 min prior to the water maze to habituate to the test environment. During the training course, mice received 3 trials per day with a 60-minute inter-trial interval for 6 days. Probe test without the hidden platform was performed at day 7 and mice were allowed to investigate for 60 seconds. An overhead camera and a computerized video imaging analysis system were used to analyze the swimming paths and the escape latency.

Data set [4] has as its system microglia. The data set is described as follows: Microglial Aβ phagocytosis by co-localization of Iba1 and Aβ plaques. Conditions: brain of APP/PS1 mice, FIG. 5A. The format is in vivo. The protocol: as §1
as §2, with “Numbers of Aβ deposits and fluorescent area positive for AP deposits were normalized with total area of the section using MetaMorph imaging software.” left out
Since microglia are primary immune cells in the brain responsible for Aβ clearance, treatment effects on microglial Aβ phagocytosis was evaluated by co-localization of microglia and Aβ plaques using confocal microscopy.

Data set [5] deals with microglia. The data set is described as follows: Morphological analyses of microglia (neurite outgrowth analyses). Conditions: total length of cell-associated skeletonized outgrowth, FIG. 5G. The format is in vivo, APP/PS1 mice.

For the compound `CCN(CC)C(=O)CC(C)(C(=O)/C=C/c1ccc(OC)c(OC)c1)C(=O)/C=C/c1ccc(OC)c(OC)c1` [TML-6], the “amount of TML-6 in rodent chow at various storage conditions” value in data set [1] is listed as “stable”. Moreover, the “Aβ depositions (Amylo-glo staining)” value with Aβ plaques is listed as “lower levels of Aβ depositions”. Moreover, in the data set with APP/PS1 mice [2] (two-way ANOVA, vs APP/PS1 controls, FIG. 4A), the nesting scores entry was “significant improvements”. In addition, the “slopes of nesting scores, p (linear regression)” value with APP/PS1 mice [2] (vs APP/PS1 controls, FIG. 4B) came out at 0.07173; with APP/PS1 mice [2] (vs wt), 0.1648. Further, in the data set on APP/PS1 mice [3], the “latency of finding the hidden platform” value is reported as “comparable to that of wt”. Moreover, the “microglial Aβ phagocytosis (co-localization of Iba1 and Aβ plaques)” value in the data set on microglia [4] is recorded as “not affected”. Also, the “total outgrowth of microglia” value with microglia [5] is recorded as “increased”.

Source of the values: US11793775B2, “Combined therapy for treating Alzheimer's disease” (MERRY LIFE BIOMEDICAL COMPANY, LTD., priority 2021, dated 2023).
